Data reported in patent US9365583B2, “Substituted pyrazoles and uses thereof” (Genentech, Inc., priority 2013, dated 2016).

Target: T1, N-terminally GST-tagged DLK (catalytic domain amino acid 1-520) (Homo sapiens, UniProt Q12852)
T1 construct: N-terminally GST-tagged DLK (catalytic domain amino acid 1-520); purchased Carna Bioscience
T1 sequence (Q12852 1-520): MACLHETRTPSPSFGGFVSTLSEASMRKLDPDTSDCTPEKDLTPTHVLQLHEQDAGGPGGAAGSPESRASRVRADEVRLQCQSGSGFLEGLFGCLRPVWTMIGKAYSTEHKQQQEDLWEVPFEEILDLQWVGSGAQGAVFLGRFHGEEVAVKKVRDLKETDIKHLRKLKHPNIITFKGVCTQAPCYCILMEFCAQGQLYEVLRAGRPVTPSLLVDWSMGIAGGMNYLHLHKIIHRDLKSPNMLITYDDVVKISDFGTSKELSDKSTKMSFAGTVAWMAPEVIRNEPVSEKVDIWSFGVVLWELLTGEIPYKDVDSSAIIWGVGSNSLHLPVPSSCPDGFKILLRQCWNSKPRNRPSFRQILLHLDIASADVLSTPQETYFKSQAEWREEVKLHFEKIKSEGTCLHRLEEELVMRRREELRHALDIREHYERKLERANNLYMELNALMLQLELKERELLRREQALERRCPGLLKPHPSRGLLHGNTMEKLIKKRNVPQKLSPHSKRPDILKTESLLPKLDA
Experiment: DLK TR-FRET inhibition assay
Assay type: biochemical
Conditions: 5 nM GST-DLK, 40 nM HIS-MKK4 K131M substrate, 30 μM ATP, 60 minutes at ambient temperature
In short: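 5 nM GST-DLK (aa 1-520), 40 nM HIS-MKK4 K131M and 30 μM ATP reacted 60 min at ambient temperature in HEPES pH 7.5 buffer with 10 mM MgCl2, compound 1:3 serially diluted from 20 uM. TR-FRET detection of phospho-MKK4 used Eu-cryptate anti-phospho-MKK4 plus D2 anti-HIS, read after 3 h (665/615 nm).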

SMILES | Ki [nM]
CC(C)n1nc(-c2cnc(N)c(C(F)(F)F)c2)cc1[C@H]1[C@@H]2C[C@@H](N3CCN(C4COC4)CC3)C[C@@H]21 [compound 117, 5-(1-isopropyl-5-((1R,3s,5S,6r)-3-(4-(oxetan-3-yl)piperazin-1-yl)bicyclo[3.1.0]hexan-6-yl)-1H-pyrazol-3-yl)-3-(trifluoromethyl) pyridin-2-amine] | 5.26
CC(C)n1nc(-c2cnc(N)c(OC(F)F)c2)cc1[C@H]1[C@@H]2C[C@H](N3C[C@@H](F)[C@@H](F)C3)C[C@@H]21 [compound 118, 3-(difluoromethoxy)-5-(5-((1R,3r,5S,6R)-3-((3S,4R)-3,4-difluoro-pyrrolidin-1-yl)bicyclo[3.1.0]hexan-6-yl)-1-isopropyl-1H-pyrazol-3-yl)pyridin-2-amine] | 3.75
CC(C)n1nc(-c2cnc(N)c(OC(F)F)c2)cc1[C@H]1[C@@H]2C[C@@H](N3C[C@@H](F)[C@@H](F)C3)C[C@@H]21 [compound 119, 3-(difluoromethoxy)-5-(5-((1R, 3s,5S,6R)-3-((3S,4R)-3,4-difluoro-pyrrolidin-1-yl)bicyclo[3.1.0]hexan-6-yl)-1-isopropyl-1H-pyrazol-3-yl)pyridin-2-amine] | 6.64
CC(C)n1nc(-c2cnc(N)c(OC(F)F)c2)cc1[C@H]1[C@@H]2C[C@H](NCC(F)(F)F)C[C@@H]21 [compound 120, 3-(difluoromethoxy)-5-(1-isopropyl-5-((1R,3r,5S,6r)-3-((2,2,2-trifluoroethyl)amino)bicyclo [3.1.0]hexan-6-yl)-1H-pyrazol-3-yl) pyridin-2-amine] | 6.91
CC(C)n1nc(-c2cnc(N)c(OC(F)F)c2)cc1[C@H]1[C@@H]2C[C@@H](NCC(F)(F)F)C[C@@H]21 [compound 121, 3-(difluoromethoxy)-5-(1-isopropyl-5-((1R,3s,5S,6r)-3-((2,2,2-trifluoroethyl)amino)bicyclo [3.1.0]hexan-6-yl)-1H-pyrazol-3-yl) pyridin-2-amine] | 6.68
CC(C)n1nc(-c2cnc(N)c(C(F)(F)F)c2)cc1[C@@H]1[C@@H]2C[C@@H](O)C[C@@H]21 [compound 122, (1R,3s,5S,6s)-6-(3-(6-amino-5-(trifluoromethyl)pyridin-3-yl)-1-isopropyl-1H-pyrazol-5-yl) bicyclo[3.1.0]hexan-3-ol] | > 321
CC(C)n1nc(-c2cnc(N)c(OC(F)F)c2)cc1[C@@H]1[C@@H]2C[C@@H](O)C[C@@H]21 [compound 123, (1R,3s,5S,6s)-6-(3-(6-amino-5-(difluoromethoxy)pyridin-3-yl)-1-isopropyl-1H-pyrazol-5-yl) bicyclo[3.1.0]hexan-3-ol] | > 321
CC(C)n1nc(-c2cnc(N)c(C(F)(F)F)c2)cc1[C@@H]1[C@@H]2C[C@@H](N3CC(C#N)C3)C[C@@H]21 [compound 124, 1-((1R,3s,5S,6s)-6-(3-(6-amino-5-(trifluoromethyl)pyridin-3-yl)-1-isopropyl-1H-pyrazol-5-yl)bicyclo[3.1.0]hexan-3-yl) azetidine-3-carbonitrile] | > 1600
CC(C)n1nc(-c2cnc(N)c(OC(F)(F)F)c2)cc1[C@@H]1[C@@H]2C[C@H](N3CCOCC3)C[C@@H]21 [compound 125, 5-(1-isopropyl-5-((1R,3r,5S,6s)-3-morpholinobicyclo[3.1.0]hexan-6-yl)-1H-pyrazol-3-yl)-3-(trifluoro-methoxy)pyridin-2-amine] | > 1600
CC(C)n1nc(-c2cnc(N)c(C(F)(F)F)c2)cc1[C@@H]1[C@@H]2C[C@H](N3CCOCC3)C[C@@H]21 [compound 126, 5-(1-isopropyl-5-((1R,5S,6s)-3-morpholinobicyclo[3.1.0]hexan-6-yl)-1H-pyrazol-3-yl)-3-(trifluoro-methyl)pyridin-2-amine] | > 1600
Nc1ncc(-c2cc([C@H]3[C@@H]4C[C@H](N5CCOCC5)C[C@@H]43)n(CC3CCC3)n2)cc1OC(F)F [compound 127, 5-(1-(cyclobutylmethyl)-5-((1R, 3r,5S,6r)-3-morpholinobicyclo [3.1.0]hexan-6-yl)-1H-pyrazol-3-yl)-3-(difluoromethoxy)pyridin-2-amine] | 3.55
Nc1ncc(-c2cc([C@H]3[C@@H]4C[C@@H](N5CCOCC5)C[C@@H]43)n(CC3CCC3)n2)cc1OC(F)F [compound 128, 5-(1-(cyclobutylmethyl)-5-((1R, 3s,5S,6r)-3-morpholinobicyclo [3.1.0]hexan-6-yl)-1H-pyrazol-3-yl)-3-(difluoromethoxy)pyridin-2-amine] | 5.06
Nc1ncc(-c2cc([C@H]3[C@@H]4C[C@H](N5CCOCC5)C[C@@H]43)n(C3CCCC3)n2)cc1OC(F)F [compound 129, 5-(1-cyclopentyl-5-((1R,3r,5S,6r)-3-morpholinobicyclo[3.1.0]hexan-6-yl)-1H-pyrazol-3-yl)-3-(difluoromethoxy)pyridin-2-amine] | 4.52
Nc1ncc(-c2cc([C@H]3[C@@H]4C[C@@H](N5CCOCC5)C[C@@H]43)n(C3CCCC3)n2)cc1OC(F)F [compound 130, 5-(1-cyclopentyl-5-((1R,3s,5S,6r)-3-morpholinobicyclo[3.1.0]hexan-6-yl)-1H-pyrazol-3-yl)-3-(difluoromethoxy)pyridin-2-amine] | 4.82
Nc1ncc(-c2cc([C@H]3[C@@H]4C[C@@H](N5CCOCC5)C[C@@H]43)n(C3CCC3)n2)cc1OC(F)F [compound 131, 5-(1-cyclobutyl-5-((1R,3s,5S,6r)-3-morpholinobicyclo[3.1.0]hexan-6-yl)-1H-pyrazol-3-yl)-3-(difluoromethoxy)pyridin-2-amine] | 3.5
Nc1ncc(-c2cc([C@H]3[C@@H]4C[C@H](N5CCOCC5)C[C@@H]43)nn2C2CCC2)cc1OC(F)F [compound 132, 5-(1-cyclobutyl-3-((1R,3r,5S,6r)-3-morpholinobicyclo[3.1.0]hexan-6-yl)-1H-pyrazol-5-yl)-3-(difluoromethoxy)pyridin-2-amine] | 258
Nc1ncc(-c2cc([C@H]3[C@@H]4C[C@@H](N5CCOCC5)C[C@@H]43)nn2C2CCC2)cc1OC(F)F [compound 133, 5-(1-cyclobutyl-3-((1R,3s,5S,6r)-3-morpholinobicyclo[3.1.0]hexan-6-yl)-1H-pyrazol-5-yl)-3-(difluoromethoxy)pyridin-2-amine] | ≥ 321
Nc1ncc(-c2cc([C@H]3[C@@H]4C[C@H](N5CCOCC5)C[C@@H]43)n(C3CCC3)n2)cc1OC(F)F [compound 134, 5-(1-cyclobutyl-5-((1R,3r,5S,6r)-3-morpholinobicyclo[3.1.0]hexan-6-yl)-1H-pyrazol-3-yl)-3-(difluoromethoxy)pyridin-2-amine] | 1.58
Nc1ncc(-c2cc([C@H]3[C@@H]4C[C@@H](N5CCCOCC5)C[C@@H]43)n(CC(F)F)n2)cc1C(F)(F)F [compound 135, 5-(5-((1R,3s,5S,6r)-3-(1,4-oxazepan-4-yl)bicyclo[3.1.0]hexan-6-yl)-1-(2,2-difluoroethyl)-1H-pyrazol-3-yl)-3-(trifluoromethyl) pyridin-2-amine] | 5.57
Nc1ncc(-c2cc([C@H]3[C@@H]4C[C@H](N5CCCOCC5)C[C@@H]43)n(CC(F)F)n2)cc1C(F)(F)F [compound 136, 5-(5-((1R,3r,5S,6r)-3-(1,4-oxazepan-4-yl)bicyclo[3.1.0]hexan-6-yl)-1-(2,2-difluoroethyl)-1H-pyrazol-3-yl)-3-(trifluoromethyl) pyridin-2-amine] | 7.1
